In the supplement of paper PMC4862054:

Legend:
Details in all cases: 72 h
BT-549 [1] = tested on: BT-549
Description: (§1)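 Drug sensitivity and resistance testing (DSRT) of breast cancer cell lines in 384-well plates, 5 concentrations in 10-fold dilutions over a compound-specific 10,000-fold range. After 72 h, cytotoxicity was read by CellTox Green fluorescence and viability by CellTiter-Glo luminescence (multiplexed), normalised to DMSO and benzethonium chloride controls. EC50 is the inflection point of the fitted dose-response curve (bottom asymptote free, so it can be relative for partial curves) and is censored at the highest tested concentration. Rows with DSS 0 (no meaningful response) were excluded.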

MDA-MB-436 [2] = tested on: MDA-MB-436
Description: as §1

CAL-85-1 [3] = tested on: CAL-85-1
Description: as §1

MDA-MB-231 [4] = tested on: MDA-MB-231
Description: as §1

MDA-MB-468 [5] = tested on: MDA-MB-468
Description: as §1

SK-BR-3 [6] = tested on: SK-BR-3
In short: (§2)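 Breast cancer cell lines (20 µl suspension) were seeded into 384-well plates holding compound at 5 concentrations in 10-fold steps over a compound-specific 10,000-fold range, then incubated 72 h. Cell death was read first by CellTox Green fluorescence (485/520 nm), then viability by CellTiter-Glo luminescence after 10 min at room temperature. Each plate was normalised to 0.1 % DMSO and a positive kill control. EC50 was fitted from the dose-response curves and censored at the top concentration.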

HCC1143 [7] = tested on: HCC1143
In short: as §2

BT-549 [8] = tested on: BT-549; remark: listed apart in the source
In short: as §2

CAL-85-1 [9] = tested on: CAL-85-1; remark: listed apart in the source
In short: as §2

MDA-MB-231 [10] = tested on: MDA-MB-231; remark: listed apart in the source
In short: as §2

Hs578T [11] = tested on: Hs578T
In short: as §2

CAL-120 [12] = tested on: CAL-120
In short: as §2

MCF-10A = tested on: MCF-10A
In short: as §2

CAL-51 = tested on: CAL-51
In short: (§3)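 Each 384-well plate was pre-loaded with compound dissolved in 5 µl medium, received breast cancer cells in 20 µl suspension, and was incubated 72 h. A 2.5 µl addition of CellTiter-Blue for 2 h at 37 °C was followed by a fluorescence read at 560/590 nm. Data were normalised per plate to vehicle and a positive kill control and checked by Z'-factor. EC50 was fitted from the percent-inhibition dose-response curve, censored at the highest concentration, excluding rows with a drug sensitivity score of zero.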

HDQ-P1 [13] = tested on: HDQ-P1
In short: as §3

HCC1599 = tested on: HCC1599
In short: as §3

BT-549 [14] = tested on: BT-549; remark: listed apart in the source
In short: as §3

MFM-223 [15] = tested on: MFM-223
In short: as §3

Hs578T [16] = tested on: Hs578T; remark: listed apart in the source
In short: as §3

CAL-120 [17] = tested on: CAL-120; remark: listed apart in the source
In short: as §3

HCC1937 [18] = tested on: HCC1937
Description: as §1

CAL-120 [19] = tested on: CAL-120; remark: listed apart in the source
Description: as §1

DU-4475 [20] = tested on: DU-4475
In short: as §2

MFM-223 [21] = tested on: MFM-223; remark: listed apart in the source
In short: as §2

HCC1937 [22] = tested on: HCC1937; remark: listed apart in the source
In short: as §2

HDQ-P1 [23] = tested on: HDQ-P1; remark: listed apart in the source
In short: as §2

MDA-MB-436 [24] = tested on: MDA-MB-436; remark: listed apart in the source
In short: as §2

MDA-MB-453 = tested on: MDA-MB-453
In short: as §2

BT-474 = tested on: BT-474
In short: as §3

SK-BR-3 [25] = tested on: SK-BR-3; remark: listed apart in the source
In short: as §3

HCC1143 [26] = tested on: HCC1143; remark: listed apart in the source
In short: as §3

MDA-MB-231 [27] = tested on: MDA-MB-231; remark: listed apart in the source
In short: as §3

HCC1937 [28] = tested on: HCC1937; remark: listed apart in the source
In short: as §3

MDA-MB-468 [29] = tested on: MDA-MB-468; remark: listed apart in the source
In short: as §3

MDA-MB-436 [30] = tested on: MDA-MB-436; remark: listed apart in the source
In short: as §3

DU-4475 [31] = tested on: DU-4475; remark: listed apart in the source
In short: as §3

CAL-85-1 [32] = tested on: CAL-85-1; remark: listed apart in the source
In short: as §3

O=P1(NCCCl)OCCCN1CCCl (stereo unspecified) [Ifosfamide]
EC50, CellTox Green (BT-549 [1]): > 10 µM | EC50, CellTox Green (MDA-MB-436 [2]): > 10 µM

N#CCNC(=O)c1ccc(-c2ccnc(Nc3ccc(N4CCOCC4)cc3)n2)cc1 [Momelotinib]
EC50, CellTox Green (BT-549 [1]): 3.3 µM | EC50, CellTox Green (CAL-85-1 [3]): 1.63 µM | EC50, CellTox Green (MDA-MB-231 [4]): 0.0772 µM | EC50, CellTox Green (MDA-MB-468 [5]): 5.27 µM | EC50, CellTiter-Glo (SK-BR-3 [6]): 2.9 µM | EC50, CellTiter-Glo (HCC1143 [7]): 1.57 µM | EC50, CellTiter-Glo (BT-549 [8]): 2.11 µM | EC50, CellTiter-Glo (CAL-85-1 [9]): 2.16 µM | EC50, CellTiter-Glo (MDA-MB-231 [10]): 5.19 µM | EC50, CellTiter-Glo (Hs578T [11]): 2.24 µM | EC50, CellTiter-Glo (CAL-120 [12]): 1.38 µM | EC50, CellTiter-Glo (MCF-10A): 6.59 µM

O=C(O)c1ccc(-c2c[nH]c3ncc(-c4ccccc4)cc23)cc1C1CCCC1
EC50, CellTiter-Glo (SK-BR-3 [6]): > 10 µM | EC50, CellTiter-Glo (Hs578T [11]): > 10 µM

Cc1ccc(C(=O)Nc2ccc(CN3CCN(C)CC3)c(C(F)(F)F)c2)cc1C#Cc1cnc2cccnn12 [Ponatinib]
EC50, CellTiter-Blue viability (CAL-51): 0.869 µM | EC50, CellTiter-Blue viability (HDQ-P1 [13]): 0.307 µM | EC50, CellTiter-Blue viability (HCC1599): 0.217 µM | EC50, CellTiter-Blue viability (BT-549 [14]): 0.893 µM | EC50, CellTiter-Blue viability (MFM-223 [15]): 0.00843 µM | EC50, CellTiter-Blue viability (Hs578T [16]): > 1 µM | EC50, CellTiter-Blue viability (CAL-120 [17]): 0.19 µM | EC50, CellTox Green (MDA-MB-231 [4]): 0.231 µM | EC50, CellTox Green (HCC1937 [18]): 0.387 µM | EC50, CellTox Green (CAL-120 [19]): 0.482 µM | EC50, CellTiter-Glo (DU-4475 [20]): 0.588 µM | EC50, CellTiter-Glo (BT-549 [8]): 0.689 µM | EC50, CellTiter-Glo (CAL-85-1 [9]): > 1 µM | EC50, CellTiter-Glo (MDA-MB-231 [10]): 0.382 µM | EC50, CellTiter-Glo (MFM-223 [21]): 0.0318 µM | EC50, CellTiter-Glo (HCC1937 [22]): > 1 µM | EC50, CellTiter-Glo (HDQ-P1 [23]): 0.22 µM | EC50, CellTiter-Glo (CAL-120 [12]): 0.162 µM | EC50, CellTiter-Glo (MDA-MB-436 [24]): 0.265 µM | EC50, CellTiter-Glo (MCF-10A): 0.643 µM | EC50, CellTiter-Glo (MDA-MB-453): > 1 µM

N[C@@H](CSC(c1ccccc1)(c1ccccc1)c1ccccc1)C(=O)O [S-trityl-L-cysteine]
EC50, CellTiter-Blue viability (BT-474): 10.8 µM | EC50, CellTiter-Blue viability (SK-BR-3 [25]): 1.13 µM | EC50, CellTiter-Blue viability (HCC1143 [26]): > 40 µM | EC50, CellTiter-Blue viability (BT-549 [14]): 18.3 µM | EC50, CellTiter-Blue viability (MDA-MB-231 [27]): 0.955 µM | EC50, CellTiter-Blue viability (HCC1937 [28]): 0.715 µM | EC50, CellTiter-Blue viability (Hs578T [16]): 1.91 µM | EC50, CellTiter-Blue viability (MDA-MB-468 [29]): 1.41 µM | EC50, CellTiter-Blue viability (CAL-120 [17]): 2 µM | EC50, CellTiter-Blue viability (MDA-MB-436 [30]): 4.58 µM

NC(=O)Nc1cc(-c2cccc(F)c2)sc1C(=O)N[C@H]1CCCNC1 [AZD 7762]
EC50, CellTiter-Blue viability (CAL-51): 0.564 µM | EC50, CellTiter-Blue viability (DU-4475 [31]): 0.619 µM | EC50, CellTiter-Blue viability (CAL-85-1 [32]): 0.215 µM | EC50, CellTiter-Blue viability (HDQ-P1 [13]): 0.508 µM | EC50, CellTiter-Blue viability (HCC1599): 0.0877 µM | EC50, CellTiter-Blue viability (SK-BR-3 [25]): 0.364 µM | EC50, CellTiter-Blue viability (HCC1143 [26]): 0.705 µM | EC50, CellTiter-Blue viability (BT-549 [14]): 0.67 µM | EC50, CellTiter-Blue viability (MDA-MB-231 [27]): 0.347 µM | EC50, CellTiter-Blue viability (HCC1937 [28]): 0.613 µM | EC50, CellTiter-Blue viability (Hs578T [16]): 0.211 µM | EC50, CellTiter-Blue viability (MDA-MB-468 [29]): 0.61 µM | EC50, CellTiter-Blue viability (CAL-120 [17]): 0.56 µM | EC50, CellTiter-Blue viability (MDA-MB-436 [30]): 0.333 µM
